Key:
[1] = test system: P. aeruginosa 1405; experiment: MIC determination in Muller Hinton Agar (CLSI); format: cell-based, Pseudomonas aeruginosa; conditions: for MIC (mcg/ml) of carbapenem in presence of [A] at 4 mcg/ml: in presence of Compound A at 4 mcg/ml; for MIC (mcg/ml) of carbapenem in presence of [B] at 4 mcg/ml: in presence of Compound B at 4 mcg/ml;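 on all read-outs here: MIC read as lowest concentration giving complete growth inhibition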
Experimental: (§1) The antibacterial activity of combinations according to the invention against resistant bacterial strains was investigated. Minimum Inhibitory Concentration (MIC) determination for the combinations according to invention was carried out in Muller Hinton Agar (MHA) (BD, USA) according to Clinical and Laboratory Standards Institute (CLSI) recommendations, (Clinical and Laboratory Standards Institute (CLSI), Performance Standards for Antimicrobial Susceptibility Testing, 20th Informational Supplement, M 100-S20, Volume 30, No. 1, 2010). In short, the test strains were adjusted to deliver about 10^4 CFU per spot with a multipoint inoculator (Applied Quality Services, UK). The plates were pored with MHA containing doubling concentration range of the test combinations according to invention. The plates were inoculated and were incubated at 35° C. for 18 hours.

[2] = test system: P. aeruginosa 2779; experiment: MIC determination in Muller Hinton Agar (CLSI); format: cell-based, Pseudomonas aeruginosa; conditions: for MIC (mcg/ml) of carbapenem in presence of [A] at 4 mcg/ml: in presence of Compound A at 4 mcg/ml; for MIC (mcg/ml) of carbapenem in presence of [B] at 4 mcg/ml: in presence of Compound B at 4 mcg/ml;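 on all read-outs here: MIC read as lowest concentration giving complete growth inhibition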
Experimental: as §1

[3] = test system: P. aeruginosa J 154; experiment: MIC determination in Muller Hinton Agar (CLSI);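 on MIC (mcg/ml) of carbapenem in presence of [A] at 4 mcg/ml: MIC read as lowest concentration giving complete growth inhibition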;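 on MIC (mcg/ml) of carbapenem in presence of [B] at 4 mcg/ml: MIC read as lowest concentration giving complete growth inhibition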; format: cell-based, Pseudomonas aeruginosa; conditions: for MIC: Pseudomonas aeruginosa, J154, agent alone, P. aeruginosa J 154 [Reduced OprD]; for MIC (mcg/ml) of carbapenem in presence of [A] at 4 mcg/ml: in presence of Compound A at 4 mcg/ml; for MIC (mcg/ml) of carbapenem in presence of [A] at 4 mcg/ml / MIC (mcg/ml) of carbapenem in presence of [B] at 4 mcg/ml: P. aeruginosa J 154; for MIC (mcg/ml) of carbapenem in presence of [B] at 4 mcg/ml: in presence of Compound B at 4 mcg/ml
Experimental: as §1

[4] = test system: P. aeruginosa R 70; experiment: MIC determination in Muller Hinton Agar (CLSI); format: cell-based, Pseudomonas aeruginosa; conditions: for MIC: Pseudomonas aeruginosa, R70, 18 h, agent alone, P. aeruginosa R 70 [Reduced OprD + increased efflux]; for MIC (mcg/ml) of carbapenem in presence of [A] at 4 mcg/ml: in presence of Compound A at 4 mcg/ml; for MIC (mcg/ml) of carbapenem in presence of [A] at 4 mcg/ml / MIC (mcg/ml) of carbapenem in presence of [B] at 4 mcg/ml: P. aeruginosa R 70; for MIC (mcg/ml) of carbapenem in presence of [B] at 4 mcg/ml: in presence of Compound B at 4 mcg/ml
Experimental: as §1

[5] = test system: Pseudomonas aeruginosa 1405; experiment: Time kill study; format: cell-based; conditions: P. aeruginosa 1405; for effect on bacterial counts through out the duration of the study (in words): when used alone
Experimental: (§2) The synergistic killing effect of the combinations according to invention was studied by performing time kill studies. In a typical time kill study, the freshly grown cultures were diluted to the required cell density (initial starting inoculum) in Cation adjusted Muller Hinton broth medium (BD, USA). The antibacterial agents (either alone or in combination) at the required concentrations were added into the culture-containing medium. The samples were incubated under shaking condition (120 rpm) at 37° C. Enumeration of viable bacterial count was done every 2 hour by diluting in normal saline and plating on to the Tryptic Soya Agar plates (BD, USA). The plates were incubated for 24 hours to arrive at the viable bacterial count. The results are expressed in terms of Log10 CFU per ml. In general, the decrease of 1 Log10 CFU/ml, corresponds to 90% killing of bacteria.

[6] = test system: Pseudomonas aeruginosa R70; experiment: Time kill study; format: cell-based; conditions: P. aeruginosa R70; for effect on bacterial counts through out the duration of the study (in words): when used alone
Experimental: as §2

[7] = test system: highly resistant strains of Pseudomonas aeruginosa; experiment: MIC determination, all strains; format: cell-based; conditions: highly resistant strains of P. aeruginosa
Experimental: as §1
The results on antibacterial activity of a carbapenem antibacterial agent selected from imipenem, meropenem, ertapenem and doripenem alone and in combination with Compound A or Compound B, against highly resistant strains of Pseudomonas aeruginosa are given in Table 1. […] For example, P. aeruginosa 2779 harbors resistance due to increased AmpC expression (300 times) and increased efflux; P. aeruginosa 1405 harbors resistance due to increased AmpC expression (600 times), reduced OprD expression and increased efflux; P. aeruginosa R 70 harbors resistance due to reduced OprD expression and increased efflux; and P. aeruginosa J 154 harbors resistance due to reduced OprD.

[8] = Table 2, single agent 16 mcg/ml
[9] = Table 3, single agent 16 mcg/ml
[10] = Table 4, single agent 16 mcg/ml
[11] = Table 5, single agent 16 mcg/ml
[12] = in presence of Compound A or Compound B

C[C@@H](O)[C@H]1C(=O)N2C(C(=O)O)=C(S[C@@H]3CN[C@H](C(=O)Nc4cccc(C(=O)O)c4)C3)[C@H](C)[C@H]12 [Ertapenem, ertapenem]
MIC (mcg/ml) of carbapenem in presence of [A] at 4 mcg/ml [1]: 128 µg/mL
MIC (mcg/ml) of carbapenem in presence of [B] at 4 mcg/ml [1]: 64 µg/mL
MIC (mcg/ml) of carbapenem in presence of [A] at 4 mcg/ml [2]: 4 µg/mL
MIC (mcg/ml) of carbapenem in presence of [B] at 4 mcg/ml [2]: 4 µg/mL
MIC [3]: > 128 µg/mL
MIC (mcg/ml) of carbapenem in presence of [A] at 4 mcg/ml [3]: >128 µg/mL
MIC (mcg/ml) of carbapenem in presence of [B] at 4 mcg/ml [3]: 128 µg/mL
MIC [4]: > 128 µg/mL
MIC (mcg/ml) of carbapenem in presence of [A] at 4 mcg/ml [4]: >128 µg/mL
MIC (mcg/ml) of carbapenem in presence of [B] at 4 mcg/ml [4]: ≤0.12 µg/mL
effect on bacterial counts through out the duration of the study (in words) [5]: failed to reduce the bacterial counts
Bacterial count (Log10 CFU/ml) 0 hour [5, 8]: 6.84 Log10 CFU/ml
Bacterial count (Log10 CFU/ml) 2 hour [5, 8]: 6.90 Log10 CFU/ml
Bacterial count (Log10 CFU/ml) 4 hour [5, 8]: 7.87 Log10 CFU/ml
Bacterial count (Log10 CFU/ml) 6 hour [5, 8]: 7.65 Log10 CFU/ml
Bacterial count (Log10 CFU/ml) 0 hour [5, 9]: 6.81 Log10 CFU/ml
Bacterial count (Log10 CFU/ml) 2 hour [5, 9]: 6.90 Log10 CFU/ml
Bacterial count (Log10 CFU/ml) 4 hour [5, 9]: 7.87 Log10 CFU/ml
Bacterial count (Log10 CFU/ml) 6 hour [5, 9]: 7.65 Log10 CFU/ml
effect on bacterial counts through out the duration of the study (in words) [6]: failed to reduce the bacterial counts
Bacterial count (Log10 CFU/ml) 0 hour [6, 10]: 6.62 Log10 CFU/ml
Bacterial count (Log10 CFU/ml) 2 hour [6, 10]: 6.87 Log10 CFU/ml
Bacterial count (Log10 CFU/ml) 4 hour [6, 10]: 7.47 Log10 CFU/ml
Bacterial count (Log10 CFU/ml) 6 hour [6, 10]: 8.16 Log10 CFU/ml
Bacterial count (Log10 CFU/ml) 0 hour [6, 11]: 6.44 Log10 CFU/ml
Bacterial count (Log10 CFU/ml) 2 hour [6, 11]: 6.46 Log10 CFU/ml
Bacterial count (Log10 CFU/ml) 4 hours [6, 11]: 7.17 Log10 CFU/ml
Bacterial count (Log10 CFU/ml) 6 hour [6, 11]: 7.13 Log10 CFU/ml
MIC values (in words) [7, 12]: decreased significantly
MIC values (in words) ([7]; when used alone): higher MIC values

C[C@@H](O)[C@H]1C(=O)N2C(C(=O)O)=C(S[C@@H]3CN[C@H](C(=O)N(C)C)C3)[C@H](C)[C@H]12 [Meropenem, meropenem]
MIC (mcg/ml) of carbapenem in presence of [A] at 4 mcg/ml [1]: 4 µg/mL
MIC (mcg/ml) of carbapenem in presence of [B] at 4 mcg/ml [1]: 0.12 µg/mL
MIC (mcg/ml) of carbapenem in presence of [A] at 4 mcg/ml [2]: 0.12 µg/mL
MIC (mcg/ml) of carbapenem in presence of [B] at 4 mcg/ml [2]: 0.12 µg/mL
MIC [3]: 16 µg/mL
MIC (mcg/ml) of carbapenem in presence of [A] at 4 mcg/ml [3]: 8 µg/mL
MIC (mcg/ml) of carbapenem in presence of [B] at 4 mcg/ml [3]: <0.25 µg/mL
MIC [4]: > 32 µg/mL
MIC (mcg/ml) of carbapenem in presence of [A] at 4 mcg/ml [4]: 16 µg/mL
MIC (mcg/ml) of carbapenem in presence of [B] at 4 mcg/ml [4]: ≤0.12 µg/mL
effect on bacterial counts through out the duration of the study (in words) [5]: failed to reduce the bacterial counts
Bacterial count (Log10 CFU/ml) 0 hour ([5]; Table 2, single agent 4 mcg/ml): 6.84 Log10 CFU/ml
Bacterial count (Log10 CFU/ml) 2 hour ([5]; Table 2, single agent 4 mcg/ml): 5.95 Log10 CFU/ml
Bacterial count (Log10 CFU/ml) 4 hour ([5]; Table 2, single agent 4 mcg/ml): 6.89 Log10 CFU/ml
Bacterial count (Log10 CFU/ml) 6 hour ([5]; Table 2, single agent 4 mcg/ml): 7.02 Log10 CFU/ml
Bacterial count (Log10 CFU/ml) 0 hour ([5]; Table 3, single agent 4 mcg/ml): 6.81 Log10 CFU/ml
Bacterial count (Log10 CFU/ml) 2 hour ([5]; Table 3, single agent 4 mcg/ml): 6.8 Log10 CFU/ml
Bacterial count (Log10 CFU/ml) 4 hour ([5]; Table 3, single agent 4 mcg/ml): 7.0 Log10 CFU/ml
Bacterial count (Log10 CFU/ml) 6 hour ([5]; Table 3, single agent 4 mcg/ml): 7.3 Log10 CFU/ml
effect on bacterial counts through out the duration of the study (in words) [6]: failed to reduce the bacterial counts
Bacterial count (Log10 CFU/ml) 0 hour ([6]; Table 4, single agent 4 mcg/ml): 6.62 Log10 CFU/ml
Bacterial count (Log10 CFU/ml) 2 hour ([6]; Table 4, single agent 4 mcg/ml): 7.07 Log10 CFU/ml
Bacterial count (Log10 CFU/ml) 4 hour ([6]; Table 4, single agent 4 mcg/ml): 6.84 Log10 CFU/ml
Bacterial count (Log10 CFU/ml) 6 hour ([6]; Table 4, single agent 4 mcg/ml): 8.36 Log10 CFU/ml
Bacterial count (Log10 CFU/ml) 0 hour ([6]; Table 5, single agent 4 mcg/ml): 6.44 Log10 CFU/ml
Bacterial count (Log10 CFU/ml) 2 hour ([6]; Table 5, single agent 4 mcg/ml): 6.14 Log10 CFU/ml
Bacterial count (Log10 CFU/ml) 4 hours ([6]; Table 5, single agent 4 mcg/ml): 7.07 Log10 CFU/ml
Bacterial count (Log10 CFU/ml) 6 hour ([6]; Table 5, single agent 4 mcg/ml): 7.3 Log10 CFU/ml
MIC values (in words) [7, 12]: decreased significantly
MIC values (in words) ([7]; when used alone): higher MIC values
